Experimental data published in patent US11999727B2 (Tango Therapeutics, Inc., priority 2020, dated 2024).

Assays:
PRMT5 [1] = biological target: T1, PRMT5 (Homo sapiens, UniProt O14744); assay: PRMT5 biochemical IC50 assay with MTA as cofactor; settings: PRMT5, MTA as cofactor; read-out: MTA IC50
T1 construct: purchased Viva (custom protein)

PRMT5 [2] = biological target: T1, PRMT5; assay: PRMT5 biochemical IC50 assay with no cofactor; settings: PRMT5, no cofactor; read-out: No Cofactor/rel IC50
Description: Table 1 indicates IC50 values (μM) against PRMT5 for exemplary compounds in the presence of SAM as cofactor, with no cofactor, and with MTA as cofactor, respectively (columns 4-6). […] Ki values can be calculated from the IC50 values as described in the Examples section. As detailed in the Examples section, for the assay performed in the presence of SAM, IC50=Ki×1.5 (Ki=IC50/1.5).

[3] = system: HAP1 MTAP-deleted cell line; assay: SDMA in-cell western assay, HAP1 MTAP-deleted; type: cell-based; settings: for IC50: Homo sapiens, HAP1, SDMA in-cell western, HAP1 MTAP-deleted, read-out: HAP1 MTAP deleted IC50; for MTAP intact/deleted ratio: IC50 ratio HAP1 MTAP-intact vs HAP1 MTAP-deleted, SDMA in-cell western
In short: (§1)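 Isogenic HAP1 pair: the MTAP-intact line expresses endogenous MTAP, and the deleted line is MTAP-null. Symmetric dimethylarginine was detected by in-cell western and IC50 values derived for each line.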

[4] = system: HAP1 MTAP-intact cell line; assay: SDMA in-cell western assay, HAP1 MTAP-intact; type: cell-based; settings: Homo sapiens, HAP1, SDMA in-cell western, HAP1 MTAP-intact; read-out: MTAP HAP1 intact IC50
In short: as §1

[5] = system: HAP1 MTAP-deleted cell line; assay: Viability assay, MTAP-deleted cell line; type: cell-based; settings: Homo sapiens, HAP1, viability assay, MTAP-deleted cell line; read-out: HAP1 MTAP deleted viability
Description: Table 1 additionally indicates IC50 values in a viability assay for the MTAP-deleted cell line (column 10), indicating the effect of treatment with compound on cell survival.

PRMT5 [6] = biological target: T1, PRMT5; assay: PRMT5 biochemical IC50 assay with SAM as cofactor; settings: PRMT5, SAM as cofactor; read-out: SAM IC50

T1 sequence (O14744 whole entry): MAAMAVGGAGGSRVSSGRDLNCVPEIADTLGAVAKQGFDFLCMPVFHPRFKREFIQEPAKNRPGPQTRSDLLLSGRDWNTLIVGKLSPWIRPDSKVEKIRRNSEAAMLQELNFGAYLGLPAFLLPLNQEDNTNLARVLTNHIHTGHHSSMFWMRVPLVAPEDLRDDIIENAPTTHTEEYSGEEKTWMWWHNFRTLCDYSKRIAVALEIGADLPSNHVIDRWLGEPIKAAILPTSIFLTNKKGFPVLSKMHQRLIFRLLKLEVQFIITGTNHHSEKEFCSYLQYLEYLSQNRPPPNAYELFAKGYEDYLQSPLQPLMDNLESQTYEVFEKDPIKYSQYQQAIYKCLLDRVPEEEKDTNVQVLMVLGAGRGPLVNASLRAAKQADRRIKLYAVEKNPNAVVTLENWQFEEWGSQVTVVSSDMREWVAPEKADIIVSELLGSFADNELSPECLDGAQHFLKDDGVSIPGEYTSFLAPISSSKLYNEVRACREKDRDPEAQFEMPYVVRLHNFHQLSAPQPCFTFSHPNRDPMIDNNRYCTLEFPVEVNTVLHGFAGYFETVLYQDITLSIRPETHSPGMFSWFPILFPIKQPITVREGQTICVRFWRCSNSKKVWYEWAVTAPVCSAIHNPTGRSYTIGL
T1 sequence (Q9BQA1 whole entry partner): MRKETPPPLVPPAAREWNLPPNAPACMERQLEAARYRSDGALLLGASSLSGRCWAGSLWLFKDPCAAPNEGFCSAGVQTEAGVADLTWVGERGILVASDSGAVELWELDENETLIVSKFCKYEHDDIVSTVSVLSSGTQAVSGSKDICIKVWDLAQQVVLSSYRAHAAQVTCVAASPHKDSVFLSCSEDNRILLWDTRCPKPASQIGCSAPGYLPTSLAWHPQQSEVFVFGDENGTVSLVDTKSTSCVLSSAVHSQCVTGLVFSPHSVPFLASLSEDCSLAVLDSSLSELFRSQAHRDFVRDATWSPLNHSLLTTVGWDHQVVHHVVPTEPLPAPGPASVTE

| SMILES | IC50 (PRMT5 [1]) [nM] | IC50 (PRMT5 [2]) [nM] | IC50 [3] [nM] | MTAP intact/deleted ratio [3] | IC50 [4] [nM] | IC50 [5] [nM] | IC50 (PRMT5 [6]) [nM] |
| --- | --- | --- | --- | --- | --- | --- | --- |
| Cc1cc(NC(=O)C(=O)N2C[C@@H](C)CC[C@@H]2c2ccc(N)cc2)cnc1N (single isomer, unassigned) [Compound 1081] | > 500 | > 500 | > 1000 | B (an IC50 ratio greater than or equal to 3 fold but lower than 10 fold) | > 1000 | > 10000 | > 500 |
| C[C@@H]1CC[C@@H](c2cc(F)cc(Cl)c2)N(C(=O)C(=O)Nc2cncc(C(N)=O)c2)C1 (single isomer, unassigned) [Compound 1084] | > 500 | > 500 | > 1000 | C (an IC50 ratio of less than 3 fold) | > 1000 | > 10000 | > 500 |
| Cc1cc(NC(=O)C(=O)N2C[C@H](C)[C@@H](OC(C)C)C[C@H]2c2ccccc2)cnc1N (single isomer, unassigned) [Compound 1088] | < 50 | < 50 | < 100 | A (an IC50 ratio greater than or equal to 10 fold) | 100 to 1000 | < 1000 | 50 to 500 |
| CCc1cc(NC(=O)C(=O)N2C[C@H](C)[C@H](OC)C[C@H]2c2ccc(N3CCN(C)CC3)cc2)cnc1N (single isomer, unassigned) [Compound 1089] | < 50 | 50 to 500 | < 100 | A (an IC50 ratio greater than or equal to 10 fold) | 100 to 1000 | < 1000 | 50 to 500 |
| CCc1cc(NC(=O)C(=O)N2C[C@H](C)CC[C@H]2c2ccc(N3CCN(CC)CC3)cc2)cnc1N (single isomer, unassigned) [Compound 1097] | < 50 | < 50 | < 100 | A (an IC50 ratio greater than or equal to 10 fold) | 100 to 1000 | < 1000 | 50 to 500 |
| CCc1cc(NC(=O)C(=O)N2C[C@@H](C)CC[C@@H]2c2ccc(N3CCN(C)CC3)nc2)cnc1N (single isomer, unassigned) [Compound 1103] | < 50 | < 50 | < 100 | A (an IC50 ratio greater than or equal to 10 fold) | 100 to 1000 | < 1000 | 50 to 500 |
| COc1ncc(NC(=O)C(=O)N2C[C@@H](C)CC[C@@H]2c2ccc3sc(C4CC(C)(C)N(C)C(C)(C)C4)nc3c2)cc1C(N)=O (single isomer, unassigned) [Compound 1108] | < 50 | < 50 | < 100 | A (an IC50 ratio greater than or equal to 10 fold) | < 100 | < 1000 | < 50 |
| COc1ncc(NC(=O)C(=O)N2C[C@@H](C)CC[C@@H]2c2ccc3sc(C4(CN(C)C)CC4)nc3c2)cc1C(N)=O (single isomer, unassigned) [Compound 1109] | < 50 | < 50 | < 100 | A (an IC50 ratio greater than or equal to 10 fold) | 100 to 1000 | < 1000 | < 50 |
| CCc1cc(NC(=O)C(=O)N2CC(C)CCC2c2ccc(N3CCC4C(CCCN4C)C3)cc2)cnc1N (single isomer, unassigned) [Compound 1111] | < 50 | < 50 | < 100 | A (an IC50 ratio greater than or equal to 10 fold) | 100 to 1000 | < 1000 | 50 to 500 |
| CCc1cc(NC(=O)C(=O)N2C[C@H](C)CC[C@H]2c2ccc(N3CCN(C)CC3)cc2)cnc1N (single isomer, unassigned) [Compound 1116] | > 500 | > 500 | > 1000 |  | > 1000 | > 10000 | > 500 |
| C[C@H]1CC[C@H](c2cccc(Cl)c2)N(C(=O)C(=O)Nc2cnc(N)c(C3CC3)c2)C1 (single isomer, unassigned) [Compound 1119] | < 50 | < 50 | < 100 | A (an IC50 ratio greater than or equal to 10 fold) | 100 to 1000 | < 1000 | 50 to 500 |
| Cc1cc(NC(=O)C(=O)N2C[C@H](C)CC[C@H]2c2cc3cn[nH]c3s2)cnc1N (single isomer, unassigned) [Compound 1120] | > 500 | > 500 | > 1000 |  | > 1000 | > 10000 | > 500 |
| Cc1cc(NC(=O)C(=O)N2C[C@H](C)CC[C@H]2c2cccc(N3CCN(C)CC3)c2)cnc1N (single isomer, unassigned) [Compound 1121] | > 500 | > 500 | > 1000 |  | > 1000 | > 10000 | > 500 |
| C[C@H]1CC[C@H](c2ccc3sc(CCN(C)C)nc3c2)N(C(=O)C(=O)Nc2cncc(C(N)=O)c2)C1 (single isomer, unassigned) [Compound 1128] | > 500 | > 500 | 100 to 1000 |  | > 1000 | 1000 to 10000 | > 500 |
| CCc1cc(NC(=O)C(=O)N2C[C@@H](C)CC[C@@H]2c2ccc3sc([C@H]4CCN(C)C(C)(C)C4)nc3c2)cnc1N (single isomer, unassigned) [Compound 1129] | < 50 | < 50 | < 100 | B (an IC50 ratio greater than or equal to 3 fold but lower than 10 fold) | < 100 | < 1000 | 50 to 500 |
| CO[C@@H]1C[C@@H](c2ccc3scnc3c2)N(C(=O)C(=O)Nc2cnc(N)c(C)c2)C[C@@H]1C (single isomer, unassigned) [Compound 1130] | > 500 | > 500 | > 1000 |  | > 1000 | > 10000 | > 500 |
| CCc1cc(NC(=O)C(=O)N2CC(C)CCC2c2ccc(N3CCC4C(CCCN4C)C3)cc2)cnc1N (single isomer, unassigned) [Compound 1132] | < 50 | < 50 | < 100 | A (an IC50 ratio greater than or equal to 10 fold) | 100 to 1000 | < 1000 | 50 to 500 |
| CCc1cc(NC(=O)C(=O)N2C[C@H](C)CC[C@H]2c2ccc3sc(CCN(C)C)nc3c2)cnc1N (single isomer, unassigned) [Compound 1133] | > 500 | > 500 | > 1000 |  | > 1000 | 1000 to 10000 | > 500 |
| Cc1cc(NC(=O)C(=O)N2C[C@@H](C)CC[C@@H]2c2ccc3sc([C@H]4CCN(C)C(C)(C)C4)nc3c2)cnc1C (single isomer, unassigned) [Compound 1135] | < 50 | < 50 | < 100 | A (an IC50 ratio greater than or equal to 10 fold) | 100 to 1000 | < 1000 | < 50 |
| CCc1cc(NC(=O)C(=O)N2C[C@@H](C)CC[C@@H]2c2ccc3sc([C@H]4CCN(C)C(=O)C4)nc3c2)cnc1N (single isomer, unassigned) [Compound 1136] | < 50 | < 50 | < 100 | A (an IC50 ratio greater than or equal to 10 fold) | 100 to 1000 | < 1000 | 50 to 500 |
| CCc1cc(NC(=O)C(=O)N2C[C@H](C)[C@H](OC)C[C@H]2c2ccc3scnc3c2)cnc1N (single isomer, unassigned) [Compound 1138] | > 500 | > 500 | 100 to 1000 |  | > 1000 | 1000 to 10000 | > 500 |
| CCc1cc(NC(=O)C(=O)N2C[C@@H](C)CC[C@@H]2c2ccc(N3CC[C@@H]4CCN(C)C[C@@H]4C3)cc2)cnc1N (single isomer, unassigned) [Compound 1144] | < 50 | < 50 | < 100 | A (an IC50 ratio greater than or equal to 10 fold) | 100 to 1000 | < 1000 | 50 to 500 |
| COc1ncc(NC(=O)C(=O)N2C[C@@H](C)CC[C@@H]2c2ccc3sc(CCN(C)C)nc3c2)cc1C(N)=O (single isomer, unassigned) [Compound 1146] | < 50 | < 50 | < 100 | A (an IC50 ratio greater than or equal to 10 fold) | < 100 | < 1000 | < 50 |
| CCc1cc(NC(=O)C(=O)N2C[C@H](C)CC[C@H]2c2ccc(N3CCOC4(CN(C)C4)C3)cc2)cnc1N (single isomer, unassigned) [Compound 1150] | > 500 | > 500 | > 1000 |  | > 1000 | > 10000 | > 500 |
